Test [1] relates to C2Be1 cell line. Briefly: Intestinal cell proliferation in vitro (BrdU ELISA). It counts as cell-based. As for the experimental part:
Cells were treated with products under serum-limited conditions for 4-5 days. BrdU ELISA is used to measure the amount of proliferation, where it measures the amount of BrdU incorporated into proliferating cells (the more proliferation, the more BrdU that will be detected in the DNA of the cells). Levels of proliferation are expressed as a ratio calculated by dividing the BrdU incorporation of test wells by that of the controls that has medium only. […] The assay is repeated in triplicate on two separate occasions. […]
A general note: Incorporation of labelled thymidine or its analogues reports DNA synthesis.

Test [2] is described as follows: Trial 3: broiler performance with or without chlortetracycline. As to conditions: Composition A dose 0.02%. It counts as in vivo, broiler chickens.

Marks after values point to notes of the source that are not given here.

On to “EGF: epithelial growth factor, positive control known to affect cell proliferation”, for which, in test [1] (EGF concentration 10), the “% compared to media only (control), Mean” value turned out to be 113.5% and the “Proliferation Ratio (relative to control = 1), Mean” value worked out at 1.13. Besides, in test [1] (EGF concentration 100), the “% compared to media only (control), Mean” value was 119.6% and the “Proliferation Ratio (relative to control = 1), Mean” value is given as 1.20.

For the molecule `CN(C)[C@@H]1C(O)=C(C(N)=O)C(=O)[C@@]2(O)C(O)=C3C(=O)c4c(O)ccc(Cl)c4[C@@](C)(O)[C@H]3C[C@@H]12` [CTC, chlortetracycline], the BW35 in test [2] (broiler chickens up to 35 days of age) is recorded as 1978.6^b g. Besides, in test [2] (broiler chickens), the “ADFI 0-35” value was found to be 90.8c g, the “ADG 0-35” value is 55.4^b g, the BW0 was 40.2^ns g and the “F:G 0-35” value is given as 1.64^b.

(Values after patent publication US11771124B2, “Composition comprising mannose oligosaccharide and process for making same and use thereof” (CARGILL, INCORPORATED, priority 2017, dated 2023).)
